From paper PMC6979384, “Characterization of the plant homeodomain (PHD) reader family for their histone tail interactions” (Epigenetics & Chromatin, 2020)

What was measured:
Experiment in all cases: Histone peptide microarray
Format in all cases: binding, human
[1] = tested on: AIRE (PP); details: GST-tagged AIRE (PP); for Array Heatmap signal, AIRE (PP): sheet "Array Heatmap", arrays performed twice, total replicate number n = 4
Procedure, shortened: (§1)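 A peptide microarray holding 293 synthetic histone peptides with individual or combinatorial modifications was probed with each GST-PHD protein at 0.5 μM. Values represent mean intensity (±SD) from four replicates.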

[2] = tested on: BAZ2B; details: GST-tagged BAZ2B; for Array Heatmap signal, BAZ2B: sheet "Array Heatmap", arrays performed twice, total replicate number n = 4
Procedure, shortened: as §1

[3] = tested on: BPTF (PB); details: for Array Heatmap signal, BPTF (PB): sheet "Array Heatmap", GST-tagged BPTF (PB), arrays performed twice, total replicate number n = 4
Procedure, shortened: as §1

[4] = tested on: CHD4 (PPCC); details: for Array Heatmap signal, CHD4 (PPCC): sheet "Array Heatmap", GST-tagged CHD4 (PPCC), arrays performed twice, total replicate number n = 4
Procedure, shortened: as §1

[5] = tested on: CHD5 (PCC); details: for Array Heatmap signal, CHD5 (PCC): sheet "Array Heatmap", GST-tagged CHD5 (PCC), arrays performed twice, total replicate number n = 4
Procedure, shortened: as §1

[6] = tested on: CHD5 (PPCC); details: for Array Heatmap signal, CHD5 (PPCC): sheet "Array Heatmap", GST-tagged CHD5 (PPCC), arrays performed twice, total replicate number n = 4
Procedure, shortened: as §1

[7] = tested on: DIDO1; details: GST-tagged DIDO1; for Array Heatmap signal, DIDO1: sheet "Array Heatmap", arrays performed twice, total replicate number n = 4
Procedure, shortened: as §1

[8] = tested on: DPF2 (PPC2W2); details: for Array Heatmap signal, DPF2 (PPC2W2): sheet "Array Heatmap", GST-tagged DPF2 (PPC2W2), arrays performed twice, total replicate number n = 4
Procedure, shortened: as §1

[9] = tested on: ING1; details: GST-tagged ING1; for Array Heatmap signal, ING1: sheet "Array Heatmap", arrays performed twice, total replicate number n = 4
Procedure, shortened: as §1

[10] = tested on: ING2; details: GST-tagged ING2; for Array Heatmap signal, ING2: sheet "Array Heatmap", arrays performed twice, total replicate number n = 4
Procedure, shortened: as §1

[11] = tested on: ING3; details: GST-tagged ING3; for Array Heatmap signal, ING3: sheet "Array Heatmap", arrays performed twice, total replicate number n = 4
Procedure, shortened: as §1

[12] = tested on: ING4; details: GST-tagged ING4; for Array Heatmap signal, ING4: sheet "Array Heatmap", arrays performed twice, total replicate number n = 4
Procedure, shortened: as §1

[13] = tested on: ING5; details: GST-tagged ING5; for Array Heatmap signal, ING5: sheet "Array Heatmap", arrays performed twice, total replicate number n = 4
Procedure, shortened: as §1

[14] = tested on: KDM4C (TTP); details: for Array Heatmap signal, KDM4C (TTP): sheet "Array Heatmap", GST-tagged KDM4C (TTP), arrays performed twice, total replicate number n = 4
Procedure, shortened: as §1

[15] = tested on: KDM5A (1); details: GST-tagged KDM5A (1); for Array Heatmap signal, KDM5A (1): sheet "Array Heatmap", arrays performed twice, total replicate number n = 4
Procedure, shortened: as §1

[16] = tested on: KDM5A (3); details: GST-tagged KDM5A (3); for Array Heatmap signal, KDM5A (3): sheet "Array Heatmap", arrays performed twice, total replicate number n = 4
Procedure, shortened: as §1

[17] = tested on: KDM5B (1); details: GST-tagged KDM5B (1); for Array Heatmap signal, KDM5B (1): sheet "Array Heatmap", arrays performed twice, total replicate number n = 4
Procedure, shortened: as §1

[18] = tested on: KDM5B (3); details: GST-tagged KDM5B (3); for Array Heatmap signal, KDM5B (3): sheet "Array Heatmap", arrays performed twice, total replicate number n = 4
Procedure, shortened: as §1

[19] = tested on: KDM7A; details: GST-tagged KDM7A; for Array Heatmap signal, KDM7A: sheet "Array Heatmap", arrays performed twice, total replicate number n = 4
Procedure, shortened: as §1

[20] = tested on: MLL5; details: GST-tagged MLL5; for Array Heatmap signal, MLL5: sheet "Array Heatmap", arrays performed twice, total replicate number n = 4
Procedure, shortened: as §1

[21] = tested on: MORC3 (CW); details: for Array Heatmap signal, MORC3 (CW): sheet "Array Heatmap", GST-tagged MORC3 (CW), arrays performed twice, total replicate number n = 4
Procedure, shortened: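 Readout is array binding signal, reported as the mean and standard deviation over four replicates. Each purified GST-fused PHD domain was incubated at 0.5 μM with a library of 293 modified histone peptides.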

[22] = tested on: PHF13; details: GST-tagged PHF13; for Array Heatmap signal, PHF13: sheet "Array Heatmap", arrays performed twice, total replicate number n = 4
Procedure, shortened: as §1

[23] = tested on: PHF21A; details: GST-tagged PHF21A; for Array Heatmap signal, PHF21A: sheet "Array Heatmap", arrays performed twice, total replicate number n = 4
Procedure, shortened: as §1

[24] = tested on: PHF23; details: GST-tagged PHF23; for Array Heatmap signal, PHF23: sheet "Array Heatmap", arrays performed twice, total replicate number n = 4
Procedure, shortened: as §1

[25] = tested on: PHF2; details: GST-tagged PHF2; for Array Heatmap signal, PHF2: sheet "Array Heatmap", arrays performed twice, total replicate number n = 4
Procedure, shortened: as §1

[26] = tested on: PHF8; details: GST-tagged PHF8; for Array Heatmap signal, PHF8: sheet "Array Heatmap", arrays performed twice, total replicate number n = 4
Procedure, shortened: as §1

[27] = tested on: PHRF1 (RP); details: GST-tagged PHRF1 (RP); for Array Heatmap signal, PHRF1 (RP): sheet "Array Heatmap", arrays performed twice, total replicate number n = 4
Procedure, shortened: as §1

[28] = tested on: RAG2; details: GST-tagged RAG2; for Array Heatmap signal, RAG2: sheet "Array Heatmap", arrays performed twice, total replicate number n = 4
Procedure, shortened: as §1

[29] = tested on: SP140L; details: GST-tagged SP140L; for Array Heatmap signal, SP140L: sheet "Array Heatmap", arrays performed twice, total replicate number n = 4
Procedure, shortened: as §1

[30] = tested on: TAF3; details: GST-tagged TAF3; for Array Heatmap signal, TAF3: sheet "Array Heatmap", arrays performed twice, total replicate number n = 4
Procedure, shortened: as §1

[31] = tested on: TRIM66 (PB); details: for Array Heatmap signal, TRIM66 (PB): sheet "Array Heatmap", GST-tagged TRIM66 (PB), arrays performed twice, total replicate number n = 4
Procedure, shortened: as §1

[32] = sheet Array Heatmap, each array performed twice, total n = 4

H3K4ac + K9me1 + K14ac + K18ac: H3 1-20
Array Heatmap signal, AIRE (PP) [1]: 0.5251 | Array Heatmap signal, BAZ2B [2]: 0.5783 | Array Heatmap signal, BPTF (PB) [3]: 0.3424 | Array Heatmap signal, CHD4 (PPCC) [4]: 0.5629 | Array Heatmap signal, CHD5 (PCC) [5]: 0.8198 | Array Heatmap signal, CHD5 (PPCC) [6]: 0.5431 | Array Heatmap signal, DIDO1 [7]: 0.5412 | Array Heatmap signal, DPF2 (PPC2W2) [8]: 0.6154 | Array Heatmap signal, ING1 [9]: 0.4555 | Array Heatmap signal, ING2 [10]: 0.5869 | Array Heatmap signal, ING3 [11]: 0.4265 | Array Heatmap signal, ING4 [12]: 0.4584 | Array Heatmap signal, ING5 [13]: 0.3469 | Array Heatmap signal, KDM4C (TTP) [14]: 0.5174 | Array Heatmap signal, KDM5A (1) [15]: 0.4805 | Array Heatmap signal, KDM5A (3) [16]: 0.3935 | Array Heatmap signal, KDM5B (1) [17]: 0.6293 | Array Heatmap signal, KDM5B (3) [18]: 0.497 | Array Heatmap signal, KDM7A [19]: 0.4836 | Array Heatmap signal, MLL5 [20]: 0.5142 | Array Heatmap signal, MORC3 (CW) [21]: 0.3311 | Array Heatmap signal, PHF13 [22]: 0.5879 | Array Heatmap signal, PHF21A [23]: 0.4512 | Array Heatmap signal, PHF23 [24]: 0.4792 | Array Heatmap signal, PHF2 [25]: 0.368 | Array Heatmap signal, PHF8 [26]: 0.3261 | Array Heatmap signal, PHRF1 (RP) [27]: 0.3692 | Array Heatmap signal, RAG2 [28]: 0.2267 | Array Heatmap signal, SP140L [29]: 0.3469 | Array Heatmap signal, TAF3 [30]: 0.2619 | Array Heatmap signal, TRIM66 (PB) [31]: 0.5413

H3K4ac + K9me2 + K14ac + K18ac: H3 1-20
Array Heatmap signal, AIRE (PP) [1]: 0.5959 | Array Heatmap signal, BAZ2B [2]: 0.5255 | Array Heatmap signal, BPTF (PB) [3]: 0.3687 | Array Heatmap signal, CHD4 (PPCC) [4]: 0.5924 | Array Heatmap signal, CHD5 (PCC) [5]: 0.8289 | Array Heatmap signal, CHD5 (PPCC) [6]: 0.5961 | Array Heatmap signal, DIDO1 [7]: 0.6996 | Array Heatmap signal, DPF2 (PPC2W2) [8]: 0.7053 | Array Heatmap signal, ING1 [9]: 0.5602 | Array Heatmap signal, ING2 [10]: 0.6022 | Array Heatmap signal, ING3 [11]: 0.5023 | Array Heatmap signal, ING4 [12]: 0.4857 | Array Heatmap signal, ING5 [13]: 0.3863 | Array Heatmap signal, KDM4C (TTP) [14]: 0.5332 | Array Heatmap signal, KDM5A (1) [15]: 0.4994 | Array Heatmap signal, KDM5A (3) [16]: 0.4792 | Array Heatmap signal, KDM5B (1) [17]: 0.6474 | Array Heatmap signal, KDM5B (3) [18]: 0.5157 | Array Heatmap signal, KDM7A [19]: 0.3693 | Array Heatmap signal, MLL5 [20]: 0.5581 | Array Heatmap signal, MORC3 (CW) [21]: 0.4166 | Array Heatmap signal, PHF13 [22]: 0.6376 | Array Heatmap signal, PHF21A [23]: 0.517 | Array Heatmap signal, PHF23 [24]: 0.5641 | Array Heatmap signal, PHF2 [25]: 0.5092 | Array Heatmap signal, PHF8 [26]: 0.3959 | Array Heatmap signal, PHRF1 (RP) [27]: 0.5426 | Array Heatmap signal, RAG2 [28]: 0.2604 | Array Heatmap signal, SP140L [29]: 0.3786 | Array Heatmap signal, TAF3 [30]: 0.2754 | Array Heatmap signal, TRIM66 (PB) [31]: 0.6234

H3K4ac + K14ac: H3 1-20
Array Heatmap signal (histone peptide microarray) [1, 32]: 0.4945 | Array Heatmap signal (histone peptide microarray) [2, 32]: 0.8376 | Array Heatmap signal (histone peptide microarray) ([3]; GST-tagged BPTF (PB = PHD + Bromodomain), sheet Array Heatmap, each array performed twice, total n = 4): 0.4507 | Array Heatmap signal (histone peptide microarray) ([4]; GST-tagged CHD4 (PPCC = Dual PHD + Dual Chromodomain), sheet Array Heatmap, each array performed twice, total n = 4): 0.5746 | Array Heatmap signal (histone peptide microarray) ([5]; GST-tagged CHD5 (PCC = PHD + Dual Chromodomain), sheet Array Heatmap, each array performed twice, total n = 4): 0.8648 | Array Heatmap signal (histone peptide microarray) ([6]; GST-tagged CHD5 (PPCC = Dual PHD + Dual Chromodomain), sheet Array Heatmap, each array performed twice, total n = 4): 0.5648 | Array Heatmap signal (histone peptide microarray) [7, 32]: 0.6468 | Array Heatmap signal (histone peptide microarray) ([8]; GST-tagged DPF2 (PPC2W2 = Dual PHD + C2W2-type Zn-finger), sheet Array Heatmap, each array performed twice, total n = 4): 0.6791 | Array Heatmap signal (histone peptide microarray) [9, 32]: 0.5034 | Array Heatmap signal (histone peptide microarray) [10, 32]: 0.6101 | Array Heatmap signal (histone peptide microarray) [11, 32]: 0.5142 | Array Heatmap signal (histone peptide microarray) [12, 32]: 0.4509 | Array Heatmap signal (histone peptide microarray) [13, 32]: 0.3447 | Array Heatmap signal (histone peptide microarray) ([14]; GST-tagged KDM4C (TTP = Tandem Tudor domain + PHD), sheet Array Heatmap, each array performed twice, total n = 4): 0.505 | Array Heatmap signal (histone peptide microarray) [15, 32]: 0.4998 | Array Heatmap signal (histone peptide microarray) [16, 32]: 0.4971 | Array Heatmap signal (histone peptide microarray) [17, 32]: 0.6896 | Array Heatmap signal (histone peptide microarray) [18, 32]: 0.5625 | Array Heatmap signal (histone peptide microarray) [19, 32]: 0.4116 | Array Heatmap signal (histone peptide microarray) [20, 32]: 0.5464 | Array Heatmap signal (histone peptide microarray) ([21]; GST-tagged MORC3 (CW = CW-type Zn-finger), sheet Array Heatmap, each array performed twice, total n = 4): 0.433 | Array Heatmap signal (histone peptide microarray) [22, 32]: 0.6284 | Array Heatmap signal (histone peptide microarray) [23, 32]: 0.4619 | Array Heatmap signal (histone peptide microarray) [24, 32]: 0.5688 | Array Heatmap signal (histone peptide microarray) [25, 32]: 0.5218 | Array Heatmap signal (histone peptide microarray) [26, 32]: 0.3555 | Array Heatmap signal (histone peptide microarray) [27, 32]: 0.5779 | Array Heatmap signal (histone peptide microarray) [28, 32]: 0.2771 | Array Heatmap signal (histone peptide microarray) [29, 32]: 0.3353 | Array Heatmap signal (histone peptide microarray) [30, 32]: 0.2918 | Array Heatmap signal (histone peptide microarray) ([31]; GST-tagged TRIM66 (PB = PHD + Bromodomain), sheet Array Heatmap, each array performed twice, total n = 4): 0.6492
